Measurements taken from BindingDB's records for patent US10053471 (Boehringer Ingelheim International, 2018).

Biological target: 5'-AMP-activated protein kinase catalytic subunit alpha-1/subunit beta-1/subunit gamma-1 (Homo sapiens, UniProt P54619+Q13131+Q9Y478)
Assay: in vitro AMPK activation assays
Details: pH 7; 25 °C
Protocol: The test compounds were dissolved in 100% DMSO at a concentration of 10 mM and in a first step diluted in DMSO to a concentration of 5 mM, followed by serial dilution steps in 100% DMSO. Dilution factor and number of dilution steps may vary. Typically 8 different concentrations by 1:5 dilutions were prepared, further dilutions of the substances were carried out with test buffer (20 mM Hepes (pH 7.0), 15 mM MgCl2, 0.025% BSA, 0.01% Brij 35) until a concentration was reached which was 5 times above the final test concentration. 2 μl aliquots of these dilutions were transferred into a 384-well Optiplate (Perkin Elmer, #6007290). Typically the start concentration for serial dilutions in the assay is 10 μM. Typically AMPK was diluted to 25 μg/ml in the test buffer and 4 μl of this dilution were used in the kinase test (final concentration of AMPK is 10 μg/ml in a total volume of 10 μl for the kinase reaction). Kinase concentrations may vary depending on activity of the preparation batches. […] The plates were read with an Envision Luminescence Reader (Perkin-Elmer).

5'-AMP-activated protein kinase catalytic subunit alpha-1/subunit beta-1/subunit gamma-1, sequence (Q9Y478 whole entry): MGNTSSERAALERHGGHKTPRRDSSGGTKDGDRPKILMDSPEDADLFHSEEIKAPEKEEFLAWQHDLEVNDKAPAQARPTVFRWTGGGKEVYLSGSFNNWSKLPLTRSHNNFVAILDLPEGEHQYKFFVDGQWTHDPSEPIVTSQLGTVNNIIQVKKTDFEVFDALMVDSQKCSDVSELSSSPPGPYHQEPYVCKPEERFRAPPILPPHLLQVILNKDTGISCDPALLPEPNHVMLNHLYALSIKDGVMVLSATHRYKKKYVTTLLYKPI
5'-AMP-activated protein kinase catalytic subunit alpha-1/subunit beta-1/subunit gamma-1, sequence (P54619 whole entry): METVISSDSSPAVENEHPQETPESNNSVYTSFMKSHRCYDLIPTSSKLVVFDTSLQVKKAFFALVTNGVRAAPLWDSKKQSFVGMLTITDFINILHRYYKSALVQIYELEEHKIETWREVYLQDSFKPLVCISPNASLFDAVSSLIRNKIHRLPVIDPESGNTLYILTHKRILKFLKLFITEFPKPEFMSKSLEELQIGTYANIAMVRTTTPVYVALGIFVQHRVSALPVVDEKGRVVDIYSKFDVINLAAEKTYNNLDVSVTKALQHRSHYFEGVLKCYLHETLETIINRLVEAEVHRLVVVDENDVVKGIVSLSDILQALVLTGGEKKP
5'-AMP-activated protein kinase catalytic subunit alpha-1/subunit beta-1/subunit gamma-1, sequence (Q13131 whole entry): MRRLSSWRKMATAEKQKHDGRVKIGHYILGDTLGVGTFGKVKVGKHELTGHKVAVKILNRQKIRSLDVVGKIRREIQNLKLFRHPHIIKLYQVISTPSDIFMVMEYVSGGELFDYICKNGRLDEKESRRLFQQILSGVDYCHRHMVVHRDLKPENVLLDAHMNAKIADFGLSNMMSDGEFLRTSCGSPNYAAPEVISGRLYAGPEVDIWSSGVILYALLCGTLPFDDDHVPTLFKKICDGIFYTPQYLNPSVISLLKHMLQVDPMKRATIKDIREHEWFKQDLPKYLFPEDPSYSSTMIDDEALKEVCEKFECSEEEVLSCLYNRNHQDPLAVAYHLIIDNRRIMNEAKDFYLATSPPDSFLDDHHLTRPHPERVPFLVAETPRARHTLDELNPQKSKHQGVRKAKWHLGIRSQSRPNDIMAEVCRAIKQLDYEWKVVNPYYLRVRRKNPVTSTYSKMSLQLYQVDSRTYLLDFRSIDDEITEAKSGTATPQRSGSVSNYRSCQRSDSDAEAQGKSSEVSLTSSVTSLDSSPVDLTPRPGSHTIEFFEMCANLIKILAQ

EC50: 71 nM
Structure (SMILES): CS(=N)(=O)c1ccc(-c2ccc(-c3nc4[nH]c(O[C@@H]5CO[C@H]6[C@@H]5OC[C@H]6O)nc4cc3Cl)cc2)c(F)c1 (stereo partly specified) [US10053471, 13]
